Assay results: patent publication US20240366589A1, “NHE3-BINDING COMPOUNDS AND METHODS FOR INHIBITING PHOSPHATE TRANSPORT” (Ardelyx, Inc., priority 2013, published 2024)

Columns and labels:
Rat NHE3 [1] = molecular target: T1, Rat NHE3 (Rattus norvegicus, UniProt P26433); test: Cell-based NHE3 activity under prompt conditions (OK cells, BCECF pH recovery), rat NHE3; details: Table E5; 001 free base, 002-005 dihydrochloride salt
T1 construct: expressed in transfected cells; host or cells: Opossum kidney (OK) cells (ATCC), electroporation
Procedure, shortened: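 Opossum kidney cells transfected with rat or human NHE3 underwent ammonium prepulse (20 mM NH4Cl, pH 7.4, 30 min) then 10 min in Na+-free buffer, room temperature.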

Rat NHE3 [2] = molecular target: T1, Rat NHE3; test: Cell-based NHE3 activity under persistent conditions (60 min incubation, washout), rat NHE3; details: Table E5; 40 min after compound washout; dihydrochloride salt
Method: Cell-based activity of NHE3 Activity under ‘Persistent’ Conditions. The ability of compounds to inhibit Rat NHE3-mediated Na^+-dependent H^+ antiport after application and washout was measured using a modification of the pH sensitive dye method described above. Opossum kidney (OK) cells were obtained from the ATCC and propagated per their instructions. The rat NHE3 gene was introduced into OK cells via electroporation, and cells were seeded into 96 well plates and grown overnight. Medium was aspirated from the wells, cells were washed twice with NaCl-HEPES buffer (100 mM NaCl, 50 mM HEPES, 10 mM glucose, 5 mM KCl, 2 mM CaCl2, 1 mM MgCl2, pH 7.4), then overlayed with NaCl-HEPES buffer containing 0-30 μM test compound.
After a 60 min incubation, the test drug containing buffer was aspirated from the cells, cells were washed twice with NaCl-HEPES buffer without drug, then incubated for 30 min at room temperature with NH4Cl-HEPES buffer (20 mM NH4Cl, 80 mM NaCl, 50 mM HEPES, 5 mM KCl, 2 mM CaCl2, 1 mM MgCl2, pH 7.4) containing 5 μM BCECF-AM. Cells were washed twice with Ammonium free, Na^+-free HEPES (100 mM choline, 50 mM HEPES, 10 mM glucose, 5 mM KCl, 2 mM CaCl2, 1 mM MgCl2, pH 7.4) and incubated in the same buffer for 10 minutes at room temperature to lower intracellular pH. […]

[3] = test system: absorption of sodium from the intestinal lumen; test: Inhibition of intestinal sodium absorption: urinary sodium (uNa) 16 h after single oral dose in rats; format: in vivo, rat; details: for UNa (%): urinary Na excretion as % of vehicle
Procedure, shortened: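 Urinary sodium mass over the 16 h after one oral gavage dose, measured by cation-exchange ion chromatography, reported as percent of water-vehicle group; ANOVA plus Dunnett's post hoc test. Groups of six 8-week-old Sprague-Dawley rats, housed individually in metabolic cages post-dose, fed and watered freely.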

T1 sequence (P26433 29-831): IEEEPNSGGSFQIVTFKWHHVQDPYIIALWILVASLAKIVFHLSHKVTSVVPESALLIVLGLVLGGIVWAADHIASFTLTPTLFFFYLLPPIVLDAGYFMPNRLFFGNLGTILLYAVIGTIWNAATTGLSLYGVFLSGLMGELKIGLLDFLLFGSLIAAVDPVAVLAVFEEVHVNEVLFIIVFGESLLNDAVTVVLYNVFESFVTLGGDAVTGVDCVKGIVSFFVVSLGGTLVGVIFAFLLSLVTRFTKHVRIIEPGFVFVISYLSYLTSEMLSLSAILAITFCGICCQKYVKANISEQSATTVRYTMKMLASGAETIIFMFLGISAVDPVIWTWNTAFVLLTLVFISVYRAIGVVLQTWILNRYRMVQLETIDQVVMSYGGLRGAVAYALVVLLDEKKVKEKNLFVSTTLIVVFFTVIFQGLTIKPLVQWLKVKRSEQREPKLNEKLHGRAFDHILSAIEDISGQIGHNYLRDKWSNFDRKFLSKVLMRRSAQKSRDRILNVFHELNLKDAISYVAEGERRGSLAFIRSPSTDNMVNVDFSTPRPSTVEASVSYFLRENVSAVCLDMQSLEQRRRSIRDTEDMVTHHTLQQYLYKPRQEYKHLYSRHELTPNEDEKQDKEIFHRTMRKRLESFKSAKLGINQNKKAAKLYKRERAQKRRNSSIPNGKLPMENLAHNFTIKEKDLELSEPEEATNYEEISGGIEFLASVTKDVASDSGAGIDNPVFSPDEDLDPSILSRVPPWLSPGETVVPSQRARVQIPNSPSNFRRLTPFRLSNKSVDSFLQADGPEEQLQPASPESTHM

| SMILES | Rat NHE3 pIC50 Prompt (Rat NHE3 [1]) | Rat NHE3 pIC50 Persistent (Rat NHE3 [2]) | UNa (%) ([3]; single oral dose 1 mg/kg) | effect on urinary Na (UNa) ([3]; in words) | UNa (%) ([3]; single oral dose 10 mg/kg) |
| --- | --- | --- | --- | --- | --- |
| CN1Cc2c(Cl)cc(Cl)cc2[C@H](c2cccc(S(=O)(=O)NCCOCCOCCNC(=O)NCCCCNC(=O)NCCOCCOCCNS(=O)(=O)c3cccc([C@@H]4CN(C)Cc5c(Cl)cc(Cl)cc54)c3)c2)C1 [Cpd 002] | 8 | 8.4 | 11 @ 1 mg/kg % | – | – |
| CN1Cc2c(Cl)cc(Cl)cc2[C@@H](c2cccc(S(=O)(=O)NCCOCCOCCNC(=O)NCCCCNC(=O)NCCOCCOCCNS(=O)(=O)c3cccc([C@H]4CN(C)Cc5c(Cl)cc(Cl)cc54)c3)c2)C1 [Cpd 004] | 7.3 | 5.6 | – | no significant effect | 68 @ 10 mg/kg % |
